ChEMBL document CHEMBL5727622, “Heterocyclic compounds used as FGFR inhibitors” (2020)

Experiments:
[1] = target: Fibroblast growth factor receptor 2 (Homo sapiens, UniProt P21802); experiment: Inhibition Assay: FGFR2: The in vitro activity of FGFR2 was determined by assaying the phosphorylation level of the substrate in the kinase reaction, by means of an HTRF kinase assay kit. The reaction buffer comprised the following components: 5-fold diluted Enzymatic buffer/kinase 5× (main ingredient: 50 mM HEPES, pH 7.0), 5 mM MgCl2, 1 mM DTT; the human recombinant FGFR2 catalytic structural domain protein (amino acids 400-821) was commercially available from Beijing Sino Biological Inc., diluted with the reaction buffer to a 0.045 ng/μL kinase solution; the substrate reaction solution comprised a biotin labeled tyrosine kinase substrate diluted with the reaction buffer to 800 nM, and 50 μM ATP, and the assay solution comprised an Eu3+ labeled cage-shaped antibody (Cisbio, Catalog number 61T66KLB) diluted with the assay buffer (Cisbio, Catalog number 62SDBRDF) to 0.125 ng/μL, and 50 nM streptavidin labeled XL665.
[2] = target: Fibroblast growth factor receptor 4 (Homo sapiens, UniProt P22455); experiment: Inhibition Assay: FGFR4:The in vitro activity of FGFR4 was determined by assaying the phosphorylation level of the substrate in the kinase reaction, by means of an HTRF kinase assay kit. The reaction buffer comprised the following components: 5-fold diluted Enzymatic buffer/kinase 5×(main ingredient: 50 mM HEPES, pH 7.0), 5 mM MgCl2, 1 mM DTT; the human recombinant FGFR4 catalytic structural domain protein (amino acids 460-802), diluted with the reaction buffer to a 0.5 ng/μL kinase solution; the substrate reaction solution comprised a biotin labeled tyrosine kinase substrate diluted with the reaction buffer to 500 nM , and 90 μM ATP, and the assay solution comprised an Eu3+ labeled cage-shaped antibody diluted with the assay buffer to 0.125 ng/μL, and 31.25 nM streptavidin labeled XL665).
[3] = target: Fibroblast growth factor receptor 1 (Homo sapiens, UniProt P11362); experiment: Inhibition Assay: FGFR1: The in vitro activity of FGFR1 was determined by assaying the phosphorylation level of the substrate in the kinase reaction, by means of an HTRF kinase assay kit. The reaction buffer comprised the following components: 5-fold diluted Enzymatic buffer/kinase 5× (main ingredient: 50 mM HEPES, pH 7.0), 5 mM MgCl2, 1 mM DTT; the human recombinant FGFR1 catalytic structural domain protein (amino acids 308-731) was purified by the company itself, diluted with the reaction buffer to a 0.6 ng/μL kinase solution; the substrate reaction solution comprised a biotin labeled tyrosine kinase substrate diluted with the reaction buffer to 400 nM , and 40 μM ATP, and the assay solution comprised an Eu3+ labeled cage-shaped antibody diluted with the assay buffer to 0.125 ng/μL, and 25 nM streptavidin labeled XL665.
[4] = target: Fibroblast growth factor receptor 3 (Homo sapiens, UniProt P22607); experiment: Inhibition Assay: FGFR3: The in vitro activity of FGFR3 was determined by assaying the phosphorylation level of the substrate in the kinase reaction, by means of an HTRF kinase assay kit. The reaction buffer comprised the following components: 5-fold diluted Enzymatic buffer/kinase 5×(main ingredient: 50 mM HEPES, pH 7.0), 5 mM MgCl2, 1 mM DTT; the human recombinant FGFR3 catalytic structural domain protein (amino acids 399-806), diluted with the reaction buffer to a 0.3 ng/μL kinase solution; the substrate reaction solution comprised a biotin labeled tyrosine kinase substrate diluted with the reaction buffer to 1000 nM, and 90 μM ATP, and the assay solution comprised an Eu3+ labeled cage-shaped antibody diluted with the assay buffer to 0.125 ng/μL, and 62.5 nM streptavidin labeled XL665.
Chain of Fibroblast growth factor receptor 3 (P22607 whole entry, the tested form may be a part): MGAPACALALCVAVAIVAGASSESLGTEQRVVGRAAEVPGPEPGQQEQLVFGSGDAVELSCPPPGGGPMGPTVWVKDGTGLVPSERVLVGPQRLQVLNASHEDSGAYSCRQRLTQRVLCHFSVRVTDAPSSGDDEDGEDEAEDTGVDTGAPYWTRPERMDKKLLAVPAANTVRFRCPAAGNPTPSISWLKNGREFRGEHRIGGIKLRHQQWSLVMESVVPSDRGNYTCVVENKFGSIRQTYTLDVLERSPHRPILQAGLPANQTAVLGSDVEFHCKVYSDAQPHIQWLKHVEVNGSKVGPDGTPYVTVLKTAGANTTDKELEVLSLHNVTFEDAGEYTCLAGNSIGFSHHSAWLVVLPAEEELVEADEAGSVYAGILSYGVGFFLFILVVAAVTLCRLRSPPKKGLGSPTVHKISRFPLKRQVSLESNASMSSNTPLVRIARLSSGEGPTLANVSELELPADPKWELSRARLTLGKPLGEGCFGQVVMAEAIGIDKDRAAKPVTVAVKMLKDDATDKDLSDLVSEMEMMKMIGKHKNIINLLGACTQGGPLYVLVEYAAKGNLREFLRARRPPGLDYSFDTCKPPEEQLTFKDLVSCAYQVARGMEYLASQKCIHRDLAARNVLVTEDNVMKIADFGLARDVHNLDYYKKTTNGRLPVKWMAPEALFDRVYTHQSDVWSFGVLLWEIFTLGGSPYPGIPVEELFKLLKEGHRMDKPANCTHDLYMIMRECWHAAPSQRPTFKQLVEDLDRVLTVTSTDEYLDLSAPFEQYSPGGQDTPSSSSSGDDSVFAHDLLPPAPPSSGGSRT

Chain of Fibroblast growth factor receptor 2 (P21802 whole entry, the tested form may be a part): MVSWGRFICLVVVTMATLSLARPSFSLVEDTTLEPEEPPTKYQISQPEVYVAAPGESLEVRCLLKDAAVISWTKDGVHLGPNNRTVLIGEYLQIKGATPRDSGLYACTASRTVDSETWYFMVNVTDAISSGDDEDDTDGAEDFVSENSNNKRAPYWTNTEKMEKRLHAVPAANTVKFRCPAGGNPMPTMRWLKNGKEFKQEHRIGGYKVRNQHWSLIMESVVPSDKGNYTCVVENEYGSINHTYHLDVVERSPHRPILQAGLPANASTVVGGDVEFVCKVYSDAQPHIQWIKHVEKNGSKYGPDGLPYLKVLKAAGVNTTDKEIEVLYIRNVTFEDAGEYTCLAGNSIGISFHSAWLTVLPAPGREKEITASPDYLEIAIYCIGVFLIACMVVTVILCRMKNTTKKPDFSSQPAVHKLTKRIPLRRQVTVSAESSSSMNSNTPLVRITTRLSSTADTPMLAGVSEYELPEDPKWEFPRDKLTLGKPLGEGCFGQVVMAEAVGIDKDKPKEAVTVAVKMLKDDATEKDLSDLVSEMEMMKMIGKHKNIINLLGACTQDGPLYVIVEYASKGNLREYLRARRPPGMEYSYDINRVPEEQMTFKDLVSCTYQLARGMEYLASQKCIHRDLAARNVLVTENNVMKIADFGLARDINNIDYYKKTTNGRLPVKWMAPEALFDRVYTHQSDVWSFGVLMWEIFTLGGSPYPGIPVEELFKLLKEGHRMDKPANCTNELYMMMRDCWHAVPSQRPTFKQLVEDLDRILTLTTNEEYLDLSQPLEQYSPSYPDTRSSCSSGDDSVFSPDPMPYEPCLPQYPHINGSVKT
Chain of Fibroblast growth factor receptor 1 (P11362 whole entry, the tested form may be a part): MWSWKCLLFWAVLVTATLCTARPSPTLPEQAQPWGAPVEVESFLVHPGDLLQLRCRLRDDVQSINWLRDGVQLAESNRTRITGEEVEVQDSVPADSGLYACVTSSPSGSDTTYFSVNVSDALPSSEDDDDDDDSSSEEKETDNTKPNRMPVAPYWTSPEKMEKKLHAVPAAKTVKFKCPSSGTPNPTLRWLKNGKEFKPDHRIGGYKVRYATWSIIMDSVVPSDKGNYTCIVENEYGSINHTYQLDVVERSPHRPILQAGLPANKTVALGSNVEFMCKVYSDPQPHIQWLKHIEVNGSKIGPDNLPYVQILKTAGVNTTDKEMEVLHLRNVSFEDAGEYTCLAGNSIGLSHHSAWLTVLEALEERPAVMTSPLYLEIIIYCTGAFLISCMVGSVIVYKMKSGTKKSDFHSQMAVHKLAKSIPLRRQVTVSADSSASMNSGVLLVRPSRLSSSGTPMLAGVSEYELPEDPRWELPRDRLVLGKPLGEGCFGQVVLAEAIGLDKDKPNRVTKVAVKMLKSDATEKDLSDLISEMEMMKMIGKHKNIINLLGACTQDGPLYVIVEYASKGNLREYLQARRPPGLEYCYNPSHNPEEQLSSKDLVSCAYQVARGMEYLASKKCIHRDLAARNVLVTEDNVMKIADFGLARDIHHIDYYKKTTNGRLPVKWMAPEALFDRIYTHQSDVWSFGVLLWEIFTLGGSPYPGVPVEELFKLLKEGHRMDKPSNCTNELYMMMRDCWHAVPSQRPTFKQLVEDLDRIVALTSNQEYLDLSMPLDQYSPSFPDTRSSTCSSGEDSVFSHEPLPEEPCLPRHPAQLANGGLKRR
Chain of Fibroblast growth factor receptor 4 (P22455 whole entry, the tested form may be a part): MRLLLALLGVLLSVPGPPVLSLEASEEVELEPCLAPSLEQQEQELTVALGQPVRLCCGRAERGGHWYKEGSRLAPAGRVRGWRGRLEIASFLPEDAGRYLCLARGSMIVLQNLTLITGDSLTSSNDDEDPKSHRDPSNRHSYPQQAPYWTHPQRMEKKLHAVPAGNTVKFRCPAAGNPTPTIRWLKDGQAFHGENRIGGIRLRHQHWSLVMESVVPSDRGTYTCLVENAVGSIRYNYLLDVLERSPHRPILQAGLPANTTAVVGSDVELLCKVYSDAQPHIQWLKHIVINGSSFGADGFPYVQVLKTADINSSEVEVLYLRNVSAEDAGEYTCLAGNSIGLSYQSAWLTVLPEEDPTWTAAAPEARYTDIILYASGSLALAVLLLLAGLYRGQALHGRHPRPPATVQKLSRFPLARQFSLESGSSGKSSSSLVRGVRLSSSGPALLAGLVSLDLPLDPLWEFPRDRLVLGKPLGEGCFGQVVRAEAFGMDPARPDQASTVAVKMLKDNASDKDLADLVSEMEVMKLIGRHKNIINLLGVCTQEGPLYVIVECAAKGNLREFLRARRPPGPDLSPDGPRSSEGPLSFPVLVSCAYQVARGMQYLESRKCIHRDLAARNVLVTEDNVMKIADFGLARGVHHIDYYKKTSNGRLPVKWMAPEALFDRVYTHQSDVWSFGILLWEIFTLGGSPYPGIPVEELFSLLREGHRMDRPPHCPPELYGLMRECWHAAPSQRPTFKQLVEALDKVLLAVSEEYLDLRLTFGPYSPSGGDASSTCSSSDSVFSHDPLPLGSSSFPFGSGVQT

| SMILES | IC50 [1] | IC50 [2] | IC50 [3] | IC50 [4] |
| --- | --- | --- | --- | --- |
| COCCNc1cc(NC(=O)N(C)c2ccc(CN3CCOCC3=O)c(C=O)n2)ncc1C#N | > 1000 nM | < 10 nM | > 1000 nM | > 1000 nM |
| CC(C)Oc1cc(NC(=O)N(C)c2ccc(CN3CCN(C)CC3=O)c(C=O)n2)ncc1C#N | > 1000 nM | < 10 nM | > 1000 nM | > 1000 nM |
| C[C@@H](CO)Oc1cc(NC(=O)N(C)c2ccc(CN3CCN(C)CC3=O)c(C=O)n2)ncc1C#N | > 1000 nM | < 10 nM | > 1000 nM | > 1000 nM |
| CN1CCN(Cc2ccc(N(C)C(=O)Nc3cc(Cl)c(C#N)cn3)nc2C=O)C(=O)C1 | > 1000 nM | – | > 1000 nM | > 1000 nM |
| COCCOc1cc(NC(=O)N(C)c2ccc(CN3CCOCC3=O)c(C=O)n2)ncc1C#N | > 1000 nM | < 10 nM | > 1000 nM | > 1000 nM |
| CC(C)Nc1cc(NC(=O)N(C)c2ccc(CN3CCN(C)CC3=O)c(C=O)n2)ncc1C#N | > 1000 nM | < 10 nM | > 1000 nM | > 1000 nM |

Other lines, results leading:

| IC50 [1] | IC50 [2] | IC50 [3] | IC50 [4] | SMILES |
| --- | --- | --- | --- | --- |
| > 1000 nM | < 10 nM | > 1000 nM | > 1000 nM | COC[C@H](C)Oc1cc(NC(=O)N(C)c2ccc(CN3CCN(C)CC3=O)c(C=O)n2)ncc1C#N |
| > 1000 nM | < 10 nM | > 1000 nM | > 1000 nM | CC(C)Nc1cc(NC(=O)N(C)c2ccc(CN3CCOCC3=O)c(C=O)n2)ncc1C#N |
| > 1000 nM | < 10 nM | > 1000 nM | > 1000 nM | COC[C@@H](C)Oc1cc(NC(=O)N(C)c2ccc(CN3CCN(C)CC3=O)c(C=O)n2)ncc1C#N |
